This note sets out measurements from PubChem BioAssay (NCI).

Several values for one entry are separate records, joined by “and”; a condition that tells them apart may be missing. Equal values may be shown once.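 In this assay, cells in 96-well plates receive the compound at five concentrations for 48 hours. Endpoints are linearly interpolated between the surrounding concentrations. At the GI50, growth is halved. Definition used: TGI = concentration required for complete inhibition of growth.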

Some test systems named below: HT29 colon; K-562 leukemia; MDA-MB-231 breast; OVCAR-3 ovarian; SK-MEL-2 melanoma; SN12C renal; SW-620 colon; U251 CNS; CCRF-CEM leukemia; NCI-H522 lung.
Experiment in all cases: DTP human tumour cell line panel, 48 h

What is called GI50 is the concentration giving 50% growth inhibition. By TGI is commonly meant the concentration giving total growth inhibition. Low values mean more potent growth arrest, high ones less potent growth arrest. In the case of `Cc1cc(Nc2ccc(C)c(Cl)c2)n2nc(C(F)(F)F)nc2n1`, the GI50 in the assay on HT29 colon was 26.6 µM; with K-562 leukemia it was 16 µM; with MDA-MB-231 breast it was 23.7 µM; with OVCAR-3 ovarian, 22 µM; in the assay with SK-MEL-2 melanoma, 22.9 µM; in the assay on SN12C renal it was 18.8 µM. In addition, the GI50 with SW-620 colon was 30.2 µM; in the assay on U251 CNS it was 23.5 µM. For the same compound, the TGI is above 100 µM in the assay with HT29 colon; above 100 µM with K-562 leukemia; above 100 µM with MDA-MB-231 breast; 75.9 µM in the assay with OVCAR-3 ovarian; 55.4 µM in the assay with SK-MEL-2 melanoma; 52.9 µM in the assay on SN12C renal. The TGI with SW-620 colon and in the assay on U251 CNS was above 100 µM in each case.
Consider `CC#Cc1ccc(-c2ccccc2)s1`, for which the TGI with CCRF-CEM leukemia, in the assay with HT29 colon, in the assay with MDA-MB-231 breast, in the assay on NCI-H522 lung, with OVCAR-3 ovarian and in the assay on SK-MEL-2 melanoma was above 100 µM each time. The concentration for total growth inhibition (TGI) in the assay with SN12C renal, in the assay with SW-620 colon and with U251 CNS was above 100 µM in each case.
Regarding `CCC(C)SC1SCC2C(=O)N(C)C3(CC3C)C(=O)OCC(NC(=O)c3nc4ccccc4cc3O)C(=O)NC(C)C(=O)N(C)C1C(=O)N(C)C1(CC1C)C(=O)OCC(NC(=O)c1nc3ccccc3cc1O)C(=O)NC(C)C(=O)N2C` (centres undefined), the TGI in the assay on CCRF-CEM leukemia is 0.028 µM and < 0.013 µM; in the assay with HT29 colon, 0.00788 µM; in the assay with MDA-MB-231 breast it was 0.000567 µM; in the assay with NCI-H522 lung, 0.00022 µM; in the assay on OVCAR-3 ovarian, 0.00768 µM; with SK-MEL-2 melanoma, 0.000304 µM. For the same compound, the total growth inhibition concentration (TGI) with SN12C renal was 9.55 µM; in the assay with SW-620 colon it was 0.00439 µM and < 0.034 µM; with U251 CNS it was 0.0172 µM. Moreover, the GI50 is 1.48e-05 µM in the assay with HT29 colon, 1.85e-05 µM in the assay with NCI-H522 lung and 0.000162 µM with OVCAR-3 ovarian.
With `C[C@@H]1CC[C@H]2C(C)(C)[C@H]3C[C@@]12CC[C@@]3(C)O`, the TGI with CCRF-CEM leukemia, with HT29 colon, in the assay on K-562 leukemia, in the assay on MDA-MB-231 breast, in the assay with NCI-H522 lung and with OVCAR-3 ovarian was above 100 µM each time. Moreover, the values for the TGI with SK-MEL-2 melanoma, with SN12C renal and in the assay with SW-620 colon were above 100 µM, 60.5 µM and above 100 µM, respectively.
Turning to `COC1=CC(=O)C(C2(OC(C)C)OC(=O)C(Cl)=C2Cl)=CC1=O` (centres undefined), the TGI is above 100 µM in the assay on CCRF-CEM leukemia; above 100 µM with HT29 colon; 10.8 µM with K-562 leukemia; above 100 µM with MDA-MB-231 breast; 96 µM in the assay on NCI-H522 lung; above 100 µM in the assay on OVCAR-3 ovarian. For the same compound, the TGI in the assay with SK-MEL-2 melanoma is 98.8 µM; in the assay with SN12C renal it was above 100 µM; in the assay with SW-620 colon, above 100 µM.
Turning to `C#Cc1cccc(Nc2nc3cc([N+](=O)[O-])ccc3nc2Nc2ccc(O)cc2)c1`, the GI50 with CCRF-CEM leukemia is 1.33 µM; in the assay with HT29 colon, 1.71 µM; in the assay with K-562 leukemia, 2.1 µM; in the assay with MDA-MB-231 breast, 1.8 µM; in the assay with OVCAR-3 ovarian it was 1.87 µM; in the assay with SK-MEL-2 melanoma, 2.07 µM. The GI50 in the assay on SW-620 colon was 1.79 µM; in the assay on U251 CNS it was 1.8 µM. For the same compound, the concentration for total growth inhibition (TGI) with CCRF-CEM leukemia was 6.01 µM; with HT29 colon, 3.42 µM; in the assay with K-562 leukemia, 6.41 µM; in the assay with MDA-MB-231 breast, 3.8 µM; in the assay with OVCAR-3 ovarian it was 4.14 µM; in the assay on SK-MEL-2 melanoma, 4.36 µM. Also, the TGI with SW-620 colon is 3.87 µM; in the assay with U251 CNS it was 3.71 µM.
With `C=C(C)C12OC1[C@@]1(C)C(=CC2=O)CCC(O)[C@@H]1C` (some centres undefined), the TGI in the assay on CCRF-CEM leukemia was 8.82 µM; in the assay on HT29 colon it was 3.89 µM; with MDA-MB-231 breast, 7.11 µM; in the assay with NCI-H522 lung, 5.91 µM; with OVCAR-3 ovarian, above 100 µM; with SK-MEL-2 melanoma, 20.1 µM. For the same compound, the TGI in the assay with SN12C renal was 11.5 µM; with SW-620 colon it was above 100 µM; in the assay on U251 CNS, 14.4 µM.
`C[C@@]1(O)CC[C@]2(C)C3CCCC3[C@H]12` (some centres undefined): the TGI in the assay with CCRF-CEM leukemia, in the assay on HT29 colon, in the assay with K-562 leukemia, in the assay on NCI-H522 lung, in the assay on OVCAR-3 ovarian and in the assay with SK-MEL-2 melanoma was above 100 µM in each case. Further, the TGI in the assay on SN12C renal, in the assay on SW-620 colon and in the assay on U251 CNS was above 100 µM each time.
`Cc1[cH-]c(=O)n(-c2ccccc2)n1.[Au+].[Au].c1ccc([PH+](c2ccccc2)c2ccccc2)cc1.c1ccc([PH+](c2ccccc2)c2ccccc2)cc1`: the GI50 is 22.8 µM in the assay on CCRF-CEM leukemia; 53.5 µM in the assay on HT29 colon; 34.7 µM with K-562 leukemia; 3.46 µM and 12.4 µM with NCI-H522 lung; 16.7 µM in the assay on OVCAR-3 ovarian; 4.64 µM and 8.64 µM in the assay on SK-MEL-2 melanoma. Besides, the GI50 is 37.5 µM with SN12C renal; 26.9 µM in the assay with SW-620 colon; 4.97 µM and 13.1 µM with U251 CNS. Also, the TGI is above 100 µM in the assay on CCRF-CEM leukemia; above 100 µM in the assay with HT29 colon; above 100 µM with K-562 leukemia; 51.5 µM with NCI-H522 lung; 39.1 µM with OVCAR-3 ovarian; 23.5 µM in the assay with SK-MEL-2 melanoma. The figures for the TGI in the assay on SN12C renal, in the assay with SW-620 colon and with U251 CNS were above 100 µM, 81.4 µM and 27.3 µM, respectively.
`NCCNCCNCCN`: the GI50 in the assay with CCRF-CEM leukemia, with HT29 colon, with K-562 leukemia, in the assay on MDA-MB-231 breast, in the assay on OVCAR-3 ovarian and in the assay with SK-MEL-2 melanoma was above 100 µM each time. In addition, the GI50 in the assay on SN12C renal, with SW-620 colon and with U251 CNS was above 100 µM in each case. Moreover, the total growth inhibition concentration (TGI) in the assay with CCRF-CEM leukemia, in the assay with HT29 colon, in the assay on K-562 leukemia, in the assay on MDA-MB-231 breast, with OVCAR-3 ovarian and in the assay with SK-MEL-2 melanoma was above 100 µM throughout. Also, the TGI with SN12C renal, in the assay with SW-620 colon and in the assay on U251 CNS was above 100 µM in each case.
As to `CCCOc1nc(N)c2cnn(C3CCCCO3)c2n1` (centres undefined), the TGI in the assay on CCRF-CEM leukemia, in the assay on HT29 colon, in the assay with K-562 leukemia, in the assay with NCI-H522 lung, in the assay with OVCAR-3 ovarian and in the assay with SK-MEL-2 melanoma was above 100 µM each time. Also, the TGI in the assay on SN12C renal, in the assay with SW-620 colon and in the assay with U251 CNS was above 100 µM each time.
